Test results published in ChEMBL document CHEMBL5649166, “RIP3 induces apoptosis independent of pronecrotic kinase activity” (Mol Cell, 2014).

Assays:
[1] = molecular target: Serine/threonine-protein kinase Nek6 (Homo sapiens) (UniProt Q9HC98); test: Inhibition of human NEK6 using casein as substrate at 1 uM in presence of 32P-ATP by Hotspot assay relative to control; values are per cent of control
[2] = molecular target: Hepatocyte growth factor receptor (Homo sapiens) (UniProt P08581); test: Inhibition of human c-MET using poly[Glu:Tyr] (4:1) as substrate at 1 uM in presence of 32P-ATP by Hotspot assay relative to control; values are per cent of control
Hepatocyte growth factor receptor (Homo sapiens), sequence (P08581 whole entry): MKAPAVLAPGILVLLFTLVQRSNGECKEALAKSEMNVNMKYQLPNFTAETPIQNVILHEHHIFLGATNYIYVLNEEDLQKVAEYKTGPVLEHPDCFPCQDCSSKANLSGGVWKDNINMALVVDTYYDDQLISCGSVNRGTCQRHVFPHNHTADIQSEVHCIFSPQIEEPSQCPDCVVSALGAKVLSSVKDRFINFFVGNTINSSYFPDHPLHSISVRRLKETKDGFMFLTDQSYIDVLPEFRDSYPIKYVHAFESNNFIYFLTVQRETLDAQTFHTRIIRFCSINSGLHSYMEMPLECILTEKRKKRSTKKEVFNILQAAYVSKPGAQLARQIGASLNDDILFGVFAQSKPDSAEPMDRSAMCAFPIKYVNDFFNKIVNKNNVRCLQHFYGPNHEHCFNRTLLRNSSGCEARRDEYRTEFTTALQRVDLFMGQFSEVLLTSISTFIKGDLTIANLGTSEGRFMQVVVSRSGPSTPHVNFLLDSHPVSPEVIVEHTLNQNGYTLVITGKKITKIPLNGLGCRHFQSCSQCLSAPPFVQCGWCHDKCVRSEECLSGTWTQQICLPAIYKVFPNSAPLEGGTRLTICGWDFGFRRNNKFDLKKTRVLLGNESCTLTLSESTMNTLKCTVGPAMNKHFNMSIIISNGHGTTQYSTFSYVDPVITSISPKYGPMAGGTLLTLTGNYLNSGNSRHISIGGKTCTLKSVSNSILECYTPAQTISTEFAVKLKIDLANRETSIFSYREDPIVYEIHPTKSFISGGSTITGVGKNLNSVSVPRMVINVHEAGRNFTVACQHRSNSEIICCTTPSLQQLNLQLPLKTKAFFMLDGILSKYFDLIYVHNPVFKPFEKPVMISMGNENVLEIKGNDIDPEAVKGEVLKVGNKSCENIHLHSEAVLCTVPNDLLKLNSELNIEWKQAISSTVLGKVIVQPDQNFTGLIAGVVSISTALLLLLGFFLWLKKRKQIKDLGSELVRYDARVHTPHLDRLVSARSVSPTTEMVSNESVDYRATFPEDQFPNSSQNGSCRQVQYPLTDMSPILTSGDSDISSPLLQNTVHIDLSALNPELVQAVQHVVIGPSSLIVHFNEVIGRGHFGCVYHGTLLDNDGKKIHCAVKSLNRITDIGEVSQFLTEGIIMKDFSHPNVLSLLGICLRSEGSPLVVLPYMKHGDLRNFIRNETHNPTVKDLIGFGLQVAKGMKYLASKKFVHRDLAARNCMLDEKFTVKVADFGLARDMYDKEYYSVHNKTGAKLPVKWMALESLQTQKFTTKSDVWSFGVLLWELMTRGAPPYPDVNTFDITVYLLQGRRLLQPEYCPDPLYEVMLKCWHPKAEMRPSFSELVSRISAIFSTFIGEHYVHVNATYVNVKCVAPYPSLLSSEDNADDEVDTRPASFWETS

[3] = molecular target: T1, Mitogen-activated protein kinase kinase kinase 3 (Homo sapiens) (UniProt Q99759); test: Inhibition of human MEKK3 using myelin basic protein as substrate at 1 uM in presence of 32P-ATP by Hotspot assay relative to control; values are per cent of control
T1 sequence (whole entry): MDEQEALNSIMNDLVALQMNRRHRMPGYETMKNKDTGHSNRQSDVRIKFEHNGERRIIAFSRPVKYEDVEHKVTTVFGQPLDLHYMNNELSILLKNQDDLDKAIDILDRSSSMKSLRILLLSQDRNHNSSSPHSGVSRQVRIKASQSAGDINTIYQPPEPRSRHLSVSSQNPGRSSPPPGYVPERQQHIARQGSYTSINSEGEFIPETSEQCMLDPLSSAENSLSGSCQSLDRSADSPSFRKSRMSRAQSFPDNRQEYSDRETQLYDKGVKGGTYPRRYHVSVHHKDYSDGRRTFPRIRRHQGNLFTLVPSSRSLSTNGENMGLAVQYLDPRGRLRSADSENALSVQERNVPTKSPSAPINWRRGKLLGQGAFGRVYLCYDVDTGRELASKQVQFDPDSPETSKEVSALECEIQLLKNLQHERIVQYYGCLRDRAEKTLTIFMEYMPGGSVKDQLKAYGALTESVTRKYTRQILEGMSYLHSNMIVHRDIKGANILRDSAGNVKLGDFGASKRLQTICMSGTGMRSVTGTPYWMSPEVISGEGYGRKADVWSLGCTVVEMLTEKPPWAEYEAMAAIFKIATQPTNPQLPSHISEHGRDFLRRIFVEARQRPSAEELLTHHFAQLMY

[4] = molecular target: Macrophage colony-stimulating factor 1 receptor (Homo sapiens) (UniProt P07333); test: Inhibition of human FMS using poly[Glu:Tyr] (4:1) as substrate at 1 uM in presence of 32P-ATP by Hotspot assay relative to control; values are per cent of control
Macrophage colony-stimulating factor 1 receptor (Homo sapiens), sequence (P07333 whole entry): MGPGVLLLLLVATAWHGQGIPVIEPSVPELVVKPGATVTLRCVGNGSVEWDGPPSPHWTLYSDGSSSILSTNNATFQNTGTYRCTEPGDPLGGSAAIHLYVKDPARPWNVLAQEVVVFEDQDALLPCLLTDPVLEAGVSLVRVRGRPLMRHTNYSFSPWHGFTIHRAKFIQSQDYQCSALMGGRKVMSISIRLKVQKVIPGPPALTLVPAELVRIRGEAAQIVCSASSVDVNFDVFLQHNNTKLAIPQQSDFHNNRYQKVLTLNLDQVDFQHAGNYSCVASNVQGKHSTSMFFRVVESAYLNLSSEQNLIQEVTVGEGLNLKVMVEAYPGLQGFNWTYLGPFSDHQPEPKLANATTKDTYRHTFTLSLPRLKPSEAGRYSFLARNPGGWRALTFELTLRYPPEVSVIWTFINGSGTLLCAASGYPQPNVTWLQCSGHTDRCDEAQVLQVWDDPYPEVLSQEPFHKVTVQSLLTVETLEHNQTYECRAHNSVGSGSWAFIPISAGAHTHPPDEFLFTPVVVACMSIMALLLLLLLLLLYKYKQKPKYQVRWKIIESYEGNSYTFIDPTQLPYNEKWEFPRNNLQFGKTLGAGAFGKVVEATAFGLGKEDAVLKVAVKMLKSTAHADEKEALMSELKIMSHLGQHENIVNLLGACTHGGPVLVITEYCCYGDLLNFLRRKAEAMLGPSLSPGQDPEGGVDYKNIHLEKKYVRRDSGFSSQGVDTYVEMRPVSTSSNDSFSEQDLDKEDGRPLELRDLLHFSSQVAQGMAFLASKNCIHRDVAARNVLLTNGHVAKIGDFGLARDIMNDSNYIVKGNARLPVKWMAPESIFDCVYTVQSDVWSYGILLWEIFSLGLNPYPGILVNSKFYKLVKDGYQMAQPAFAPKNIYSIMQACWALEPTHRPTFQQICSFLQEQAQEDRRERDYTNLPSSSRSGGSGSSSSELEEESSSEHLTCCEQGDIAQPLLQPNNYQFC

[5] = molecular target: Serine/threonine-protein kinase PLK2 (Homo sapiens) (UniProt Q9NYY3); test: Inhibition of human PLK2 using casein as substrate at 1 uM in presence of 32P-ATP by Hotspot assay relative to control; values are per cent of control
Serine/threonine-protein kinase PLK2 (Homo sapiens), sequence (Q9NYY3 whole entry, looked up): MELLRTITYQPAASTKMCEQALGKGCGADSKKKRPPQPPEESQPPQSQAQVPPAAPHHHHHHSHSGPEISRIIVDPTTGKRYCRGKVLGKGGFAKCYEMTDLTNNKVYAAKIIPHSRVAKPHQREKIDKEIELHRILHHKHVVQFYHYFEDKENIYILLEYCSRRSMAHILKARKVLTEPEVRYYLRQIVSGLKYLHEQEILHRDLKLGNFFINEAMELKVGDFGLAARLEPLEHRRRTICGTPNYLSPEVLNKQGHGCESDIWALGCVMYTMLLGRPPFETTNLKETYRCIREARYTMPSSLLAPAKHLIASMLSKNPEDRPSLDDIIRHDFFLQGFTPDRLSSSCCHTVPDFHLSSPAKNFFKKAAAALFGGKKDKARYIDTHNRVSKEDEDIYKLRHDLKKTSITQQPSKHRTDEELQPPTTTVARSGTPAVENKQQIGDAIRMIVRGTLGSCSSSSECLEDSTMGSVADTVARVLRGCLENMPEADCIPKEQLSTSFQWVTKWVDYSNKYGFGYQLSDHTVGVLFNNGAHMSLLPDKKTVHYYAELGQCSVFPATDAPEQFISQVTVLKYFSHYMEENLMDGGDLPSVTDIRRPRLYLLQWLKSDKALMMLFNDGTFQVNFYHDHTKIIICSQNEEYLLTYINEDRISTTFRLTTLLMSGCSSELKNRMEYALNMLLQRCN

MEF = test: Induction of apoptosis in RIP3-/- MEF cells transfected with human RIP3mutRHIM incubated for 18 hrs by Cell Titer-Glo luminescent cell viability assay; type: toxicity, cell-based; conditions: mouse
[6] = molecular target: Serine/threonine-protein kinase pim-1 (Homo sapiens) (UniProt P11309); test: Inhibition of human PIM1 using RSRHSSYPAGT as substrate at 1 uM in presence of 32P-ATP by Hotspot assay relative to control; values are per cent of control
Serine/threonine-protein kinase pim-1 (Homo sapiens), sequence (P11309 whole entry, looked up): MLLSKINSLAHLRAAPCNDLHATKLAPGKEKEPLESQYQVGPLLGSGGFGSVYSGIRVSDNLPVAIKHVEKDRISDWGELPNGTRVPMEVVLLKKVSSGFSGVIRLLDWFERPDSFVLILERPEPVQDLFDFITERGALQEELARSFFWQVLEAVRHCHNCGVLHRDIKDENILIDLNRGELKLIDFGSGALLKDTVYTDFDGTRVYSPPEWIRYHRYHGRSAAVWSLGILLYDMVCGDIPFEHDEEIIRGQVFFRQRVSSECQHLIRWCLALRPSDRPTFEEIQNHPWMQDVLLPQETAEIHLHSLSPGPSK

[7] = molecular target: T2, Ephrin type-B receptor 1 (Homo sapiens) (UniProt P54762); test: Inhibition of human EPHB1 using poly[Glu:Tyr] (4:1) as substrate at 1 uM in presence of 32P-ATP by Hotspot assay relative to control; values are per cent of control
T2 sequence (whole entry): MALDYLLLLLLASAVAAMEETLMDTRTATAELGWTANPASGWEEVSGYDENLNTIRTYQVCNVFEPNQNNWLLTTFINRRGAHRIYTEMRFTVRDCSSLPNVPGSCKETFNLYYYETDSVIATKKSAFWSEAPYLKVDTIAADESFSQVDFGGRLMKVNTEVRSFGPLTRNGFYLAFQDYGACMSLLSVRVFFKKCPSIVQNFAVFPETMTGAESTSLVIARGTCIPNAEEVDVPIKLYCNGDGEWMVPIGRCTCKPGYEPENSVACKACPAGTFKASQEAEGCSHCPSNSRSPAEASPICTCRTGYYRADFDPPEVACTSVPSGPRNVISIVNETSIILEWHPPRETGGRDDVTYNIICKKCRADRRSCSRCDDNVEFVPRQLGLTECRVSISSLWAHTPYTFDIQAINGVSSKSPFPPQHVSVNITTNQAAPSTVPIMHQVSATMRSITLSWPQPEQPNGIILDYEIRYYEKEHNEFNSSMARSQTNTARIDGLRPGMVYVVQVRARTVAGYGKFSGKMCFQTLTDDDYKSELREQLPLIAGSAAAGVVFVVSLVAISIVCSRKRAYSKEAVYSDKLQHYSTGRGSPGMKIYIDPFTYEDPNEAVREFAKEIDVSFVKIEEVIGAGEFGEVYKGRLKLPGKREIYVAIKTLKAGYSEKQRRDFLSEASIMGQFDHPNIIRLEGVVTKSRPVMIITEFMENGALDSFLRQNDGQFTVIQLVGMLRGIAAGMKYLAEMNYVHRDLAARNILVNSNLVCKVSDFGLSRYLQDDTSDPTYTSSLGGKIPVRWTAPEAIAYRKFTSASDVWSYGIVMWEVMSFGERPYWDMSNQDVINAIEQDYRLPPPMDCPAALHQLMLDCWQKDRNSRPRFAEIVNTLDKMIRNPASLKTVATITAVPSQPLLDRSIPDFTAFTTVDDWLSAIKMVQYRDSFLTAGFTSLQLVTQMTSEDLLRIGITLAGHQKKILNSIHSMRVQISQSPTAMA

[8] = molecular target: T3, Mitogen-activated protein kinase 13 (Homo sapiens) (UniProt O15264); test: Inhibition of human P38d/MAPK13 using myelin basic protein as substrate at 1 uM in presence of 32P-ATP by Hotspot assay relative to control; values are per cent of control
T3 sequence (whole entry): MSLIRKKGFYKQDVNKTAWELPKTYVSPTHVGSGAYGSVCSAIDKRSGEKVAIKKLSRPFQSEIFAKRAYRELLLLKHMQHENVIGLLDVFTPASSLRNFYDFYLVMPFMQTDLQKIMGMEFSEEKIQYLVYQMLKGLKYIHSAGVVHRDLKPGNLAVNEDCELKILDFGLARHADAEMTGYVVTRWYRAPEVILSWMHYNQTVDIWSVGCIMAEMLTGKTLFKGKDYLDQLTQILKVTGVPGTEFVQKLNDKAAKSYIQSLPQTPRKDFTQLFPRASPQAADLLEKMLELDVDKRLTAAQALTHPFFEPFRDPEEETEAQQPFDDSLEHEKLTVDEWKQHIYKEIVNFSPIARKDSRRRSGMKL

Serine/threonine-protein kinase Nek6 (Homo sapiens), sequence (Q9HC98 whole entry): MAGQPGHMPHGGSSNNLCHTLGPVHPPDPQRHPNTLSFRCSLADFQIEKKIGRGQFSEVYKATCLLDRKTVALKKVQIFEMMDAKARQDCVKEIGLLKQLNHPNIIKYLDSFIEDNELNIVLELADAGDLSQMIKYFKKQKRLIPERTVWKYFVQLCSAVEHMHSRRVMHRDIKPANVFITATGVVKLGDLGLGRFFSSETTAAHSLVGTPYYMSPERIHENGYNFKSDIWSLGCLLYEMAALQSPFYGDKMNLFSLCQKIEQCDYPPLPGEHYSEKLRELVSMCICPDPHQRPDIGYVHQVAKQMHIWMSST

Cc1cc(-c2cnc(N)c3c(-c4ccc5scnc5c4)csc23)n(C)n1
residual activity [1]: 96% | residual activity [2]: 76.8% | residual activity [3]: 95% | residual activity [4]: 19.4% | residual activity [5]: 106% | Activity (MEF): Non-Toxic | residual activity [6]: 98.4% | residual activity [7]: 36.8% | residual activity [8]: 103%

CC(C)S(=O)(=O)c1ccc2nccc(Nc3ccc4scnc4c3)c2c1
residual activity [1]: 104% | residual activity [2]: 86.2% | residual activity [3]: 92.3% | residual activity [4]: 108% | residual activity [5]: 94.7% | Activity (MEF): Non-Toxic | residual activity [6]: 96.4% | residual activity [7]: 79% | residual activity [8]: 94.8%

CNC(=O)c1ccc2c(c1)ncn2-c1ccc(CC(=O)OC(C)(C)C)cc1
residual activity [1]: 104% | residual activity [2]: 92.4% | residual activity [3]: 96% | residual activity [4]: 91.8% | residual activity [5]: 99.1% | Activity (MEF): Non-Toxic | residual activity [6]: 98.5% | residual activity [7]: 104% | residual activity [8]: 104%
